Results on 29 compounds are retold here after patent publication US10166216B2 (Rigel Pharmaceuticals, Inc., priority 2006, dated 2019).

Chain of Axl (P30530 26-894): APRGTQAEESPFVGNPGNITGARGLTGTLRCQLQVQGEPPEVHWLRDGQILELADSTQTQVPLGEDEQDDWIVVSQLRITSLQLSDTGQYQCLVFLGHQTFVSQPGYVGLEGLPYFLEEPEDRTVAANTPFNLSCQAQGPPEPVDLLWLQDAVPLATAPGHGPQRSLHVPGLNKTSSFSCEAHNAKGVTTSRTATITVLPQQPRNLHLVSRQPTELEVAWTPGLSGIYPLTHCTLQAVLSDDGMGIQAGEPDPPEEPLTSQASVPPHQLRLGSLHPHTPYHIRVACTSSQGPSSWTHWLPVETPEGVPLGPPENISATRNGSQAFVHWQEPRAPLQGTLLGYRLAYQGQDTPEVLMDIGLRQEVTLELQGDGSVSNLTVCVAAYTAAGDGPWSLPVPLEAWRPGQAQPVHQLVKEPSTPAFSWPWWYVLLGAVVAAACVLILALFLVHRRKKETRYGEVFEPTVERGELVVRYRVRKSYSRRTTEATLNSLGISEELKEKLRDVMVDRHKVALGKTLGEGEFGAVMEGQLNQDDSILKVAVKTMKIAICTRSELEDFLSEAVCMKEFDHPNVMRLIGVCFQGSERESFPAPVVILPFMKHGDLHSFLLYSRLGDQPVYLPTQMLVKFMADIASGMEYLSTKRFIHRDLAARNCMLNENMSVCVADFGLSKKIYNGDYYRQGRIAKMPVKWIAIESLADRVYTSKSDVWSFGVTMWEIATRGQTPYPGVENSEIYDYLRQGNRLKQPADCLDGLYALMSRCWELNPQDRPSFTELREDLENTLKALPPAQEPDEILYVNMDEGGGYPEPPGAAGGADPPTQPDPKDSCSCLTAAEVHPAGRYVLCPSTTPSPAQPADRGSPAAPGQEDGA

The first assay has as its target Axl (Homo sapiens (Human), UniProt P30530). Put plainly: Phospho-Akt in-cell Western assay (Axl-antibody cross-linking stimulation). It counts as cell-based. The note with it: inhibition of Axl activity, Hela cells, phospho-Akt readout; Table 1, formula (Ia1). On the procedure:
The working solution: dilute the stock 1:20 with PBS immediately before use. • 10% SDS: working solution: 5% SDS (sodium dodecylsulfate), diluted in PBS Methods: Day 1:
A 96 well TC (tissue culture treated) plate was coated with 10 μg/mL poly-L-Lysine at 37° C. for 30 min, washed twice with PBS, and air-dried for 5 minutes before cells were added. Hela cells were seeded at 10,000 cells/well and the cells were starved in 100 μL starvation medium containing Axl/Fc for 24 hrs.
The cells were pre-treated with test compounds by adding 100 μL of 2× test compound to the starvation medium on the cells. The cells were incubated at 37° C. for 1 hr before stimulation.
The resulting mix was warmed to 37° C. 50 μL of 5× Axl 1st/2nd of antibody cluster was added to the cells and the cells were incubated at 37° C. for 5 min.
After 5 minutes stimulation, the plate was flicked to remove medium and the plate was tapped onto paper towels. Formaldehyde (4.0% in PBS, 100 μL) was added to fix the cells and the cells were incubated at ambient temperature for 20 min without shaking.
The cells were washed with a plate washer buffer to remove the formaldehyde solution. The plate was flicked to removed excess wash buffer and tapped onto paper towels. Quenching buffer (100 μL) was added to each well and the cells were incubated at ambient temperature for 20 minutes without shaking.
The cells were washed with a plate washer buffer to remove the quenching buffer. Blocking buffer (100 μL) was added and the cells were incubated at ambient temperature for at least an hour with gentle shaking.
The cells were washed with a plate washer buffer and diluted primary antibody (50 μL) was added to each well (blocking buffer was added to the negative control wells instead). The plates were incubated overnight at 4° C. with gentle shaking.
The wash buffer was removed, diluted secondary antibody (100 μL) was added, and the cells were incubated at ambient temperature for 1 hour with gentle shaking. During the incubation, the chemiluminescent reagent was brought to ambient temperature.
The secondary antibody was removed by washing the cells 1× with wash buffer, 1× with PBS by plate washer. The PBS was removed from the plate and the chemiluminescent reagent (80 μL: 40 μL A and 40 μL B) was added to each well at ambient temperature.
The resulting chemiluminescence was read with a Luminomitor within 10 minutes to minimize changes in signal intensity. […] The plate was tapped onto paper towels to remove excess liquid from wells and air-dried at ambient temperature for 5 minutes.
Crystal Violet working solution (60 μL) was added to each well and the cells were incubated at ambient temperature for 30 min. The crystal violet solution was removed, and the wells were rinsed with PBS, then washed 3× with PBS (200 μL) for 5 minutes each.
5% SDS solution (70 μL) was added to each well and the cells were incubated on a shaker for 30 min at ambient temperature.
This relative cell number was then used to normalize each luminescence reading. […]
Consider `Nc1nc(Nc2ccc(OCCN3CCCCC3)cc2)nn1-c1ccccc1` [Compound 1, 1-phneyl-N^3-(4-(2-(piperidin-1-yl)ethoxy)phenyl)-1H-1,2,4-triazole-3,5-diamine], for which the IC50 is greater than 20 µM.

Regarding `Nc1nc(Nc2ccc(OCCN3CCCC3)c(Cl)c2)nn1-c1ccccn1` [Compound 4, N^3-(3-chloro-4-(2-(pyrrolidin-1-yl)ethoxy)phenyl)-1-(pyridin-2-yl)-1H-1,2,4-triazole-3,5-diamine], the IC50 was less than 1 µM. With `CNc1nc(Nc2ccc(OCCN3CCCC3)cc2)nn1-c1ccccn1` [Compound 6, N^5-methyl-1-(pyridin-2-yl)-N^3-(4-(2-(pyrrolidin-1-yl)ethoxy)phenyl)-1H-1,2,4-triazole-3,5-diamine], the IC50 is greater than 20 µM.

`Nc1nc(Nc2ccc(OCCN3CCCC3)cc2)nn1-c1ccc(S(N)(=O)=O)cc1` [Compound 8, 4-(5-amino-3-(4-(2-(pyrrolidin-1-yl)ethoxy)phenylamino)-1H-1,2,4-triazol-1-yl)benzenesulfonamide] had an IC50 greater than 20 µM. `Nc1nc(Nc2ccc(OCCN3CCCC3)cc2)nn1-c1cnc2ccccc2n1` [Compound 9, N^3-(4-(2-(pyrrolidin-1-yl)ethoxy)phenyl)-1-(quinoxalin-2-yl)-1H-1,2,4-triazole-3,5-diamine] came in with an IC50 of less than 1 µM. As for `Nc1nc(Nc2ccc(OCCN3CCCCC3)cc2)nn1-c1ccnc(Cl)c1` [Compound 10, 1-(2-chloropyridin-4-yl)-N^3-(4-(2-(piperidin-1-yl)ethoxy)phenyl)-1H-1,2,4-triazole-3,5-diamine], the IC50 was greater than 20 µM. For the compound `Nc1nc(Nc2ccc(OCCN3CCCC3)cc2)nn1-c1nc2ccccc2s1` [Compound 11, 1-(benzo[d]thiazol-2-yl)-N^3-(4-(2-(pyrrolidin-1-yl)ethoxy)phenyl)-1H-1,2,4-triazole-3,5-diamine], the IC50 is greater than 20 µM. As to `Nc1nc(Nc2ccc(OCCN3CCCC3)cc2)nn1-c1cnccn1` [Compound 13, 1-(pyrazin-2-yl)-N^3-(4-(2-(pyrrolidin-1-yl)ethoxy)phenyl)-1H-1,2,4-triazole-3,5-diamine], the IC50 lay within 1 to 10 µM. As to `Cn1c(-n2nc(Nc3ccc(OCCN4CCCC4)cc3)nc2N)nc2ccccc21` [Compound 14, 1-(1-methyl-1H-benzo[d]imidazol-2-yl)-N^3-(4-(2-(pyrrolidin-1-yl)ethoxy)phenyl)-1H-1,2,4-triazole-3,5-diamine], the IC50 was greater than 20 µM. Consider `Nc1nc(Nc2ccc(OCCN3CCCCC3)cc2)nn1-c1ccnc(N2CCOCC2)c1` [Compound 15, 1-(2-morpholinopyridin-4-yl)-N^3-(4-(2-(piperidin-1-yl)ethoxy)phenyl)-1H-1,2,4-triazole-3,5-diamine], for which the IC50 was greater than 20 µM. `Nc1nc(Nc2ccc(OCCN3CCCC3)cc2)nn1-c1cccc(Cl)n1` [Compound 16, 1-(6-chloropyridin-2-yl)-N^3-(4-(2-(pyrrolidin-1-yl)ethoxy)phenyl)-1H-1,2,4-triazole-3,5-diamine]: the IC50 lay in the range of 1 to 10 µM. With `Nc1nc(Nc2ccc(OCCN3CCCC3)cc2)nn1-c1ccc(Cl)cn1` [Compound 17, 1-(5-chloropyridin-2-yl)-N^3-(4-(2-(pyrrolidin-1-yl)ethoxy)phenyl)-1H-1,2,4-triazole-3,5-diamine], the 50% inhibitory concentration (IC50) is 1 to 10 µM. Consider `Nc1nc(Nc2ccc(OCCN3CCCC3)cc2)nn1-c1ncccc1Cl` [Compound 18, 1-(3-chloropyridin-2-yl)-N^3-(4-(2-(pyrrolidin-1-yl)ethoxy)phenyl)-1H-1,2,4-triazole-3,5-diamine], for which the IC50 is greater than 20 µM. In turn, `Nc1nc(Nc2ccc(OCCN3CCCCC3)cc2)nn1-c1cccc(Cl)n1` [Compound 19, 1-(6-chloropyridin-2-yl)-N^3-(4-(2-(piperidin-1-yl)ethoxy)phenyl)-1H-1,2,4-triazole-3,5-diamine] came in with an IC50 of less than 1 µM. On the same count and under the same terms, for `Nc1nc(Nc2ccc(OCCN3CCCCC3)cc2)nn1-c1cccc(N2CCOCC2)n1` [Compound 20, 1-(6-morpholinopyridin-2-yl)-N^3-(4-(2-(piperidin-1-yl)ethoxy)phenyl)-1H-1,2,4-triazole-3,5-diamine] the value was 10 to 20 µM. On the same count and under the same terms, for `CC1CCCN1CCOc1ccc(Nc2nc(N)n(-c3cnc4ccccc4n3)n2)cc1` (centres unmarked) [Compound 21, N^3-(4-(2-(2-methylpyrrolidin-1-yl)ethoxy)phenyl)-1-(quinoxalin-2-yl)-1H-1,2,4-triazole-3,5-diamine] the value was less than 1 µM; for `CC1CCCN1CCOc1ccc(Nc2nc(N)n(-c3nc4ccccc4s3)n2)cc1` (centres unmarked) [Compound 22, 1-(benzo[d]thiazol-2-yl)-N^3-(4-(2-(2-methylpyrrolidin-1-yl)ethoxy)phenyl)-1H-1,2,4-triazole-3,5-diamine], greater than 20 µM; for `CC1CCCN1CCOc1ccc(Nc2nc(N)n(-c3nc4ccccc4n3C)n2)cc1` (centres unmarked) [Compound 23, 1-(1-methyl-1H-benzo[d]imidazol-2-yl)-N^3-(4-(2-(2-methylpyrrolidin-1-yl)ethoxy)phenyl)-1H-1,2,4-triazole-3,5-diamine], greater than 20 µM.

As to `CC1CCCN1CCOc1ccc(Nc2nc(N)n(-c3nc4ccccc4[nH]3)n2)cc1` (centres unmarked) [Compound 24, 1-(1H-benzo[d]imidazol-2-yl)-N^3-(4-(2-(2-methylpyrrolidin-1-yl)ethoxy)phenyl)-1H-1,2,4-triazole-3,5-diamine], the IC50 is greater than 20 µM. Compound `Nc1nc(Nc2ccc(OCCN3CCCC3)cc2)nn1-c1nncc2ccccc12` [Compound 25, 1-(phthalazin-1-yl)-N^3-(4-(2-(pyrrolidin-1-yl)ethoxy)phenyl)-1H-1,2,4-triazole-3,5-diamine] came in with an IC50 of less than 1 µM. As to `Nc1nc(Nc2ccc(OCCN3CCCC3)cc2)nn1-c1cc(C(F)(F)F)ccn1` [Compound 26, N^3-(4-(2-(pyrrolidin-1-yl)ethoxy)phenyl)-1-(4-(trifluoromethyl)pyridin-2-yl)-1H-1,2,4-triazole-3,5-diamine], the IC50 was less than 1 µM. The compound `CC1CCCN1CCOc1ccc(Nc2nc(N)n(-c3ccccc3F)n2)cc1` (centres unmarked) [Compound 27, 1-(2-fluorophenyl)-N^3-(4-(2-(2-methylpyrrolidin-1-yl)ethoxy)phenyl)-1H-1,2,4-triazole-3,5-diamine] gave an IC50 greater than 20 µM. The same measure, in the same setting: the result for `Nc1nc(Nc2ccc(OCCN3CCCCC3)cc2)nn1-c1ccccc1F` [Compound 28, 1-(2-fluorophenyl)-N^3-(4-(2-(piperidin-1-yl)ethoxy)phenyl)-1H-1,2,4-triazole-3,5-diamine] reads greater than 20 µM.

Compound `Nc1nc(Nc2ccc(OCCN3CCCC3)cc2)nn1-c1ncccc1C(F)(F)F` [Compound 29, N^3-(4-(2-(pyrrolidin-1-yl)ethoxy)phenyl)-1-(3-(trifluoromethyl)pyridin-2-yl)-1H-1,2,4-triazole-3,5-diamine] gave a concentration for half-maximal inhibition (IC50) of 1 to 10 µM.

Take `COc1cccc(-n2nc(Nc3ccc(OCCN4CCCC4)cc3)nc2N)n1` [Compound 30, 1-(6-methoxypyridin-2-yl)-N^3-(4-(2-(pyrrolidin-1-yl)ethoxy)phenyl)-1H-1,2,4-triazole-3,5-diamine]: the IC50 was 1 to 10 µM. Regarding `Nc1nc(Nc2ccc(OCCN3CCCC3)cc2)nn1-c1nc2ccccc2[nH]1` [Compound 31, 1-(1H-benzo[d]imidazol-2-yl)-N^3-(4-(2-(pyrrolidin-1-yl)ethoxy)phenyl)-1H-1,2,4-triazole-3,5-diamine], the IC50 is greater than 20 µM. Take `Nc1nc(Nc2ccc(OCCN3CCCC3)cc2)nn1-c1ccc(Br)cn1` [Compound 32, 1-(5-bromopyridin-2-yl)-N^3-(4-(2-(pyrrolidin-1-yl)ethoxy)phenyl)-1H-1,2,4-triazole-3,5-diamine]: the IC50 was greater than 20 µM. On to `COC(=O)C1CCCN1CCOc1ccc(Nc2nc(N)n(-c3cnc4ccccc4n3)n2)cc1` (centres unmarked) [Compound 33, methyl 1-(2-(4-(5-amino-1-(quinoxalin-2-yl)-1H-1,2,4-triazol-3-ylamino)phenoxy)ethyl)-pyrrolidine-2-carboxylate], for which the IC50 was 1 to 10 µM.

Staying with this assay, now noted: inhibition of Axl activity, phospho-Akt in-cell Western assay.
`COc1cc2cnc(-n3nc(Nc4ccc(N5CCN([C@H]6C[C@@H]7CC[C@H]6C7)CC5)cc4)nc3N)nc2cc1OC` (racemic) [Compound 182, 1-(6,7-dimethoxyquinazolin-2-yl)-N^3-(4-(4-((1S,2S,4R)-bicyclo[2.2.1]heptan-2-yl)-piperazin-1-yl)phenyl)-1H-1,2,4-triazole-3,5-diamine] showed an IC50 greater than 20 µM.
